Laboratory results reported in ChEMBL document CHEMBL3507680, “University of Dundee, Gates Library screen for HepG2 cell viability”.

Assay: Human HepG2 cell viability assay in 384 well format
Type: toxicity, cell-based
Set-up: dose 125 nL, time 70.5 hour; cytotoxicity at 70.5 h: concentration not given beside the values
Details: HepG2 cells, read-out: Inhibition

Cc1c(C(=O)N2CCOCC2)nnn1-c1ccc2ncccc2c1
cytotoxicity at 70.5 h: -6.04%

CCOCC(=O)Nc1nccn1Cc1ccccc1Cl
cytotoxicity at 70.5 h: 13.6%

CC(C)N(C)CC(=O)Nc1nccn1Cc1ccccc1Cl
cytotoxicity at 70.5 h: -2.07%

Cc1c(C(=O)N2CCS(=O)(=O)CC2)nnn1-c1ccc2ncccc2c1
cytotoxicity at 70.5 h: -4.2%

CCN(CC)S(=O)(=O)CC(=O)N1CCc2ccc(F)cc21
cytotoxicity at 70.5 h: -2.84%

CCN(CC)S(=O)(=O)CC(=O)N1CCc2ccc(Cl)cc21
cytotoxicity at 70.5 h: -1.78%

OCCOc1cc(F)ccc1NCc1cccc(F)c1F
cytotoxicity at 70.5 h: 1.35%

O=C(CNC(=O)c1ccoc1)NC(c1ccc(F)cc1)C(F)(F)F (centres undefined)
cytotoxicity at 70.5 h: -3.8%

Cc1cc(CN(C2CC2)C(C)C(C)C)no1 (centres undefined)
cytotoxicity at 70.5 h: -2.85%

CC(C)N1CCC(CNC(=O)COc2ccc(F)cc2F)C1 (centres undefined)
cytotoxicity at 70.5 h: 4.12%

CCN(CC)C(=O)CN(C)C(=O)c1cccn1CCc1ccccc1
cytotoxicity at 70.5 h: -3.38%

CC(C)(C)c1noc(CN2CCCC(CNS(N)(=O)=O)C2)n1 (centres undefined)
cytotoxicity at 70.5 h: -2.1%

CN1CCN(C(=O)c2csnn2)c2ccccc21
cytotoxicity at 70.5 h: 20.8%

Cc1nn(-c2ccccc2)c(C)c1CNC(=O)NC1CC(=O)N(C)C1 (centres undefined)
cytotoxicity at 70.5 h: -1.18%

CN(CC(=O)N(C)C1CC1)C1CCN(c2ccc(Cl)cc2)CC1
cytotoxicity at 70.5 h: 24.7%

COCCC(C)NCc1ccccc1-n1ccnc1 (centres undefined)
cytotoxicity at 70.5 h: -3.09%

CCOCCNC(=O)CCC1CCCO1 (centres undefined)
cytotoxicity at 70.5 h: 35.5%

Cc1cc(NC(=O)N2CCN(c3cccs3)CC2)ccc1C(N)=O
cytotoxicity at 70.5 h: 8.16%

O=C(NCC1CCOC1)c1cc(-c2ccccc2Cl)[nH]n1 (centres undefined)
cytotoxicity at 70.5 h: -12.9%

Cc1ccc(C(=O)N(C)CC(=O)N2CCCC2)c(C)c1
cytotoxicity at 70.5 h: -16%

Cc1cc(N(C)CC2COc3ccccc3O2)nc(C)n1 (centres undefined)
cytotoxicity at 70.5 h: 9.74%

O=C1NCCCCC1NC(=O)N1CCc2ccccc21 (centres undefined)
cytotoxicity at 70.5 h: -14.4%

COc1ccc2c(c1)CCCN2C(=O)NC1CCCCNC1=O (centres undefined)
cytotoxicity at 70.5 h: 23.6%

O=S(=O)(Cc1nc(C2CC2)no1)c1ccccc1F
cytotoxicity at 70.5 h: -11.9%

CNS(=O)(=O)c1ccc(CNC(=O)NCc2cc[nH]n2)cc1
cytotoxicity at 70.5 h: -12.9%

O=C1NCCCCC1NC(=O)N1CCCc2cc(F)ccc21 (centres undefined)
cytotoxicity at 70.5 h: -4.74%

O=C(NCC1CCOC1)c1cc(-c2cccc(Cl)c2)[nH]n1 (centres undefined)
cytotoxicity at 70.5 h: -17%

CC(NC(=O)NC1CCN(Cc2ccncc2)CC1)c1ccc(F)cc1 (centres undefined)
cytotoxicity at 70.5 h: -13.2%

Cc1noc(CS(=O)(=O)c2cc(F)ccc2F)n1
cytotoxicity at 70.5 h: -8.49%

CCc1nc(CSc2nnc(N)n2C2CC2)no1
cytotoxicity at 70.5 h: -7.26%

COc1ccccc1CNC(=O)C(C)N1CC(n2nc(C)cc2C)C1 (centres undefined)
cytotoxicity at 70.5 h: -1.72%

COc1cccc(-c2nc(CNCc3cccnc3)cs2)c1
cytotoxicity at 70.5 h: -17.2%

CN(Cc1nc(CS(C)(=O)=O)no1)c1ccccc1
cytotoxicity at 70.5 h: -12.6%

Cc1ccccc1Cc1nc(CSc2nnc(N)n2C)no1
cytotoxicity at 70.5 h: -17.8%

CC(C)c1noc(C(C)N2CCC(c3nc4ccccc4o3)CC2)n1 (centres undefined)
cytotoxicity at 70.5 h: -18.9%

O=C1NCCCN1Cc1nc(-c2ccc(N3CCCCC3)cc2)no1
cytotoxicity at 70.5 h: -1.73%

Cc1ccn(C)c(=O)c1NC(=O)N(C)Cc1cccc(OC(C)C)c1
cytotoxicity at 70.5 h: 18.1%

CN(c1ncc(S(N)(=O)=O)s1)C1CCc2ccccc21 (centres undefined)
cytotoxicity at 70.5 h: -1.27%

Cc1cc(C(N)=O)ccc1NC(=O)N1CCN(c2cccs2)CC1
cytotoxicity at 70.5 h: -12.4%

O=C(CCC1CCCO1)NCCCO (centres undefined)
cytotoxicity at 70.5 h: -18.3%

CCN(CC)C(=O)CN1CCCC1C(=O)N(C)C (centres undefined)
cytotoxicity at 70.5 h: -11.8%

Cc1nn(C)c(C)c1C1COCCN1C(=O)NC1CC1 (centres undefined)
cytotoxicity at 70.5 h: 19.2%

CCSc1cc(C(=O)N(C(C)C)C2CC2)ccn1
cytotoxicity at 70.5 h: -3.36%

CCn1cc(CN2CCCN(C(=O)C3(C#N)CCCCC3)CC2)cn1
cytotoxicity at 70.5 h: 17.8%

COc1ccc(C)cc1CCNS(=O)(=O)c1ccc2c(c1)CCC(=O)N2
cytotoxicity at 70.5 h: -18.5%

CCN(CC1COc2ccccc2O1)C(=O)C1=NN(C)C(=O)CC1 (centres undefined)
cytotoxicity at 70.5 h: -2.86%

CCC(NS(=O)(=O)N1CCOCC1)c1ccccc1OC (centres undefined)
cytotoxicity at 70.5 h: -2.95%

O=C(Cn1nnn(-c2cccs2)c1=O)N(CC1CCOC1)C1CC1 (centres undefined)
cytotoxicity at 70.5 h: -9.03%

COCC(C)N(C)C(=O)CCc1c(C)nc2c(C#N)cnn2c1C (centres undefined)
cytotoxicity at 70.5 h: 3.69%

Cc1ccc(NCCCNC(=O)NCc2c(C)cc(C)[nH]c2=O)nc1
cytotoxicity at 70.5 h: -10.4%

Cc1cc(C)c(CNC(=O)NCCCNc2ccccn2)c(=O)[nH]1
cytotoxicity at 70.5 h: 6.35%

COc1ccc(C(C)NS(=O)(=O)c2ccc3c(c2)CCC(=O)N3)cc1F (centres undefined)
cytotoxicity at 70.5 h: 12.7%

Cc1nc2c(C#N)cnn2c(C)c1CCC(=O)N(C)C1CC1
cytotoxicity at 70.5 h: 8.54%

COCCCN(C)S(=O)(=O)c1ccc(Cl)cc1C#N
cytotoxicity at 70.5 h: -14.2%

CSCC(C)N(C)S(=O)(=O)c1ccc(Cl)cc1C#N (centres undefined)
cytotoxicity at 70.5 h: -5.66%

CCC(CNC(=O)Cc1cc(C)on1)Oc1cccc(F)c1 (centres undefined)
cytotoxicity at 70.5 h: 0.445%

CC(C)SCc1cccc(NC(=O)NCCc2nnc[nH]2)c1
cytotoxicity at 70.5 h: 11.5%

CCC(O)CN(Cc1ccccc1)S(=O)(=O)c1cnc(C)s1 (centres undefined)
cytotoxicity at 70.5 h: -9.64%

CN(CC1COc2ccccc2O1)C(=O)C1=NN(C)C(=O)CC1 (centres undefined)
cytotoxicity at 70.5 h: 8.57%

COCCOc1ncccc1C(=O)N(C)c1ccc(OC)nc1
cytotoxicity at 70.5 h: -8.37%

CCCC(C#N)NC(=O)CCCOc1cccc(C(C)=O)c1 (centres undefined)
cytotoxicity at 70.5 h: 18%

CCCN(CC1COc2ccccc2O1)C(=O)C1=NN(C)C(=O)CC1 (centres undefined)
cytotoxicity at 70.5 h: -9.94%

COCC(=O)N(CCC(=O)OC)CC1CCCO1 (centres undefined)
cytotoxicity at 70.5 h: -10.3%

COc1ccc(CN2CCN(S(=O)(=O)c3cc(C(=O)O)cs3)CC2)cc1
cytotoxicity at 70.5 h: -18.9%

O=C(NCCN1CCOCC1)c1ccn(-c2ccccc2F)n1
cytotoxicity at 70.5 h: -2.56%

O=C(CC1CCN(c2ncnc3cccc(F)c23)CC1)N1CCCC1
cytotoxicity at 70.5 h: -24.3%

COCC(=O)N1CCN(c2ncnc3cccc(F)c23)CC1
cytotoxicity at 70.5 h: 0.217%

O=C(C1CCN(c2ncnc3cccc(F)c23)CC1)N1CCCC1
cytotoxicity at 70.5 h: 8.28%

N#CC1(NC(=O)c2nccc3ccccc23)CCC1
cytotoxicity at 70.5 h: -8.96%

NCC1(c2cccc(C(F)(F)F)c2)CCCC1
cytotoxicity at 70.5 h: 15.4%

CC(NCc1ccc(-c2ccc(Cl)cc2)o1)c1nnc2n1CCC2 (centres undefined)
cytotoxicity at 70.5 h: -4.6%

CCc1nc(CCNC(=O)NC2CCC(=O)N(C)C2)sc1C (centres undefined)
cytotoxicity at 70.5 h: -8.41%

CCCn1nc2c(cc1=O)CN(Cc1ncc(C(C)(C)C)o1)CC2
cytotoxicity at 70.5 h: -4.85%

CCn1nc2c(cc1=O)CN(Cc1cc(C)on1)CC2
cytotoxicity at 70.5 h: -3.67%

COc1cccc(CN(C)Cc2ccccc2C#N)c1OC
cytotoxicity at 70.5 h: -1.91%

CC(C(=O)Nc1ccnn1C(C)C)N1CCN(Cc2ccccc2)CC1 (centres undefined)
cytotoxicity at 70.5 h: -7.81%

CC(NCc1cc2cc(F)ccc2o1)c1nnc2n1CCCC2 (centres undefined)
cytotoxicity at 70.5 h: -5.97%

NC(=O)c1cccc(NC(=O)CSc2ccc3c(c2)CCC3)c1
cytotoxicity at 70.5 h: -1.16%

O=C(c1ccccc1)C1CCN(c2cncc(-n3cccn3)n2)CC1
cytotoxicity at 70.5 h: 1.36%

CCN1CCC(CNCc2cc(C)ccc2OC)C1 (centres undefined)
cytotoxicity at 70.5 h: -8.51%

COC(=O)c1ccc(NC(=O)CN2CCCCC2C2OCCO2)cc1 (centres undefined)
cytotoxicity at 70.5 h: 0.785%

CNC(=O)c1cnc(/C=C/c2cc(OC)c(O)c(OC)c2)s1
cytotoxicity at 70.5 h: -12.6%

Cc1ccc(-n2nnc(C(=O)NCCS(N)(=O)=O)c2C2CC2)cc1
cytotoxicity at 70.5 h: -18.3%

COc1ccc(NC(=O)c2ccco2)c(N2CCN(C(C)=O)CC2)n1
cytotoxicity at 70.5 h: -11.7%

CCS(=O)(=O)N(C)C1CCN(C(=O)c2ccc(Cl)cc2)CC1
cytotoxicity at 70.5 h: -15.5%

CCS(=O)(=O)N(C)C1CCN(C(=O)c2ccc(C)c(C)c2)CC1
cytotoxicity at 70.5 h: -8.23%

CN(CC(=O)Nc1nncs1)CC1CCCN1c1cccnn1 (centres undefined)
cytotoxicity at 70.5 h: 4.97%

Cc1cc(C)n(-c2cncc(N3CCN(C(=O)CN(C)C)CC3)n2)n1
cytotoxicity at 70.5 h: -11.6%

COCc1nc2cc(NCc3nc(C)cs3)ccc2o1
cytotoxicity at 70.5 h: -2.56%

COCc1nc2cc(NCc3ccc(CO)o3)ccc2o1
cytotoxicity at 70.5 h: 14.6%

NC(=O)C1CCN(C(=O)C2SCCc3sccc32)CC1 (centres undefined)
cytotoxicity at 70.5 h: -10.3%

O=C(C1SCCc2sccc21)N1CCN(CC(F)F)CC1 (centres undefined)
cytotoxicity at 70.5 h: -5.33%

O=C(C1SCCc2sccc21)N1CCN(C2CC2)C(=O)C1 (centres undefined)
cytotoxicity at 70.5 h: -5.13%

O=C(NCC1(CO)CC1)c1nnn(-c2ccc(F)cc2)c1C1CC1
cytotoxicity at 70.5 h: -4.26%

CN1C(=O)c2ccc(NC(=O)CSc3ccc4c(c3)CCC4)cc2C1=O
cytotoxicity at 70.5 h: -3.82%

COCc1nc2cc(NCc3csc(C)n3)ccc2o1
cytotoxicity at 70.5 h: 3.55%

Cc1ccc(C(CNCc2cccn2C)N2CCOCC2)s1 (centres undefined)
cytotoxicity at 70.5 h: -4.6%

CCN(C(=O)CN1CCCC1Cc1ccccc1)c1ccccc1 (centres undefined)
cytotoxicity at 70.5 h: 8.48%

CN(C)C(=O)c1cccc(NC(=O)CN2CCCCC2C2OCCO2)c1 (centres undefined)
cytotoxicity at 70.5 h: -5.7%

COc1ccc(CNCC2CCN(CCO)CC2)cc1F
cytotoxicity at 70.5 h: -5.24%

CCN(C1CCN(C(=O)c2cccc(Cl)c2)CC1)S(C)(=O)=O
cytotoxicity at 70.5 h: -6.65%

CCOc1ccc(CNC(C)c2cccc(S(=O)(=O)NC)c2)cc1 (centres undefined)
cytotoxicity at 70.5 h: -9.92%

CCn1cc(CNCC(c2ccc(C)s2)N2CCOCC2)cn1 (centres undefined)
cytotoxicity at 70.5 h: -7.64%

CCN1CCOC(CNCc2ccc(OC)c(F)c2)C1 (centres undefined)
cytotoxicity at 70.5 h: -6.46%

CNS(=O)(=O)c1cccc(C(C)NCc2ccco2)c1 (centres undefined)
cytotoxicity at 70.5 h: -8.45%

CCC1CN(CC(=O)NCc2ccco2)CCO1 (centres undefined)
cytotoxicity at 70.5 h: 2.02%

FC(F)(F)C1CCCn2c(CNCc3ccco3)nnc21 (centres undefined)
cytotoxicity at 70.5 h: 35.4%

CN(CC(=O)N1CCCC1c1noc(C2CC2)n1)C1CC1 (centres undefined)
cytotoxicity at 70.5 h: -8.76%

CCN(C)CCNC(=O)Cc1nc(-c2ccco2)oc1C
cytotoxicity at 70.5 h: -13.2%

CCOc1ncccc1NC(=O)N1CCCC1c1cc(C)no1 (centres undefined)
cytotoxicity at 70.5 h: -8.02%

Cc1cc(C2CCCN2C(=O)NCc2ccccn2)on1 (centres undefined)
cytotoxicity at 70.5 h: -16.2%

Cc1cc(C2CCCN2C(=O)NCc2cccnc2OC(C)C)on1 (centres undefined)
cytotoxicity at 70.5 h: -9.53%

CCS(=O)(=O)CC(=O)Nc1c(C)cnn1Cc1cc(F)ccc1F
cytotoxicity at 70.5 h: 25.7%

O=C(Cn1cnc(NC(=O)c2ccccn2)n1)NCc1ccccc1
cytotoxicity at 70.5 h: -12.9%

CC(C)(C)CC(=O)Nc1ncn(CC(=O)NCc2ccccc2)n1
cytotoxicity at 70.5 h: 25.6%

CCOCCNC(=O)c1cc(Br)c2c(c1)OCCO2
cytotoxicity at 70.5 h: -10.7%

Cc1ccc(N2CCCC(N(C)Cc3nnc(C4CC4)o3)C2)nn1 (centres undefined)
cytotoxicity at 70.5 h: -5.49%

Cc1ccc(N2CCCC(N(C)Cc3c(C)noc3C)C2)nn1 (centres undefined)
cytotoxicity at 70.5 h: 25.3%

C=C(C)Cn1nnc(C2(NC(=O)c3ccccc3)CCCC2)n1
cytotoxicity at 70.5 h: -8.81%
